Measurements published in PubChem BioAssay AID1919009 (Molecular Pharmacology Branch, DTP, NCI, 2023).
pIC50: −log10 of the molar value. One block for each molecule: values may come before it.

Tested on: K24384-001-R-PDC complex spheroid growth
Assay: Anticancer human tumor K24384-001-R-PDC patient-derived pancreatic adenocarcinoma cell line growth inhibition [AhR]
Settings: for pIC50: curve of first compound; for viability, T/C: stronger effect = lower value
From the text: Multicellular complex tumor spheroid response to aryl hydrocarbon receptor antagonists in combination with a variety of drugs and investigational agents in selected tumor cell lines
The current study was undertaken to assess response to aryl hydrocarbon receptor antagonists in combination with standard-of-care drugs and investigational agents in solid tumor complex spheroid models. Complex spheroids include a stromal component modeled by human endothelial cells (HUVEC) and fibroblasts modeled by human mesenchymal stem cells (MSCs). The concentration ranges selected for each drug and investigational agent were based upon clinically achievable concentrations if the clinical Cmax of the agent was known.
Compounds. The drugs and investigational agents: BAY 2416964 (NSC825713), GNF351 (NSC835774), CH-223191 (NSC835775), CPI-455 (NSC825282), aza-TdCyd (NSC777586), decitabine (NSC127716), belinostat (NSC758774), entinostat (NSC756642), pevonedistat (NSC761192), tazemetostat (NSC777109), talazoparib (NSC765396), olaparib (NSC753686), selinexor (NSC780203), nedisertib (M3814, NSC802822), bortezomib (NSC756655), venetoclax (NSC766270), doxorubicin (NSC123127), elimusertib (BAY189344, NSC800525), ceralasertib (AZD6738, NSC777638), TAK-243 (NSC785004), alisertib (NSC759677), etoposide (NSC141540), topotecan (NSC609699), eribulin (NSC707389), gemcitabine (NSC613327), carboplatin (NSC241240), cisplatin (NSC119875), and SN-38 (NSC673596) were obtained from the National Cancer Institute (NCI) Developmental Therapeutics Program Chemical Repository (32). The FDA-approved anticancer drug set is available from the Developmental Therapeutics Program at https://dtp.cancer.gov/organization/dscb/obtaining/available plates.htm. […] The stock solutions were prepared in dimethyl sulfoxide (DMSO, Sigma-Aldrich, St. Louis, MO, cat. D2650), except for the platinum compounds which were prepared in saline (Quality Biological, Gaithersburg, MD, cat. 114-055-101), at 800-fold the tested concentration and stored at -70 degrees C prior to their use. All drugs and investigational agents were tested over a range starting from a high concentration at or near the clinical Cmax and decreasing in half-log increments. If the clinical Cmax for an agent had not been determined, the highest concentration tested was 10 microM (Table 1).
Cell Culture. All cells were maintained in an incubator at 37 degrees C and 5% CO2 with 95% humidity. The PDC lines were cultured according to standard operating procedures established by the NCI PDMR (https://pdmr.cancer.gov). Briefly, all PDCs were thawed and cultured in Matrigel-coated flasks prepared with a working solution of 1X Ham's F-12 nutrient mix, without supplementation (Invitrogen, Waltham, MA, cat. 11765054), 100 U/mL penicillin-streptomycin (Invitrogen, cat. 15140122), and 2.5% Matrigel (Corning Inc., Corning, NY, cat. 354248) for the first three passages. All PDCs were cultured in complete DMEM/F-12 media containing advanced DMEM/F-12 (Invitrogen, cat. 12634028), 4.9% defined fetal bovine serum, heat inactivated (HyClone Laboratories Inc., Logan, UT, cat. SH30070.03HI), 389 ng/mL hydrocortisone (Sigma-Aldrich, cat. H4001), 9.7 ng/mL human EGF recombinant protein (Invitrogen, cat. PHG0313), 23.4 microg/mL adenine (Sigma-Aldrich, cat. A2786), 97.3 U/mL penicillin-streptomycin (Invitrogen, cat. 15140122), 1.9 mM L-glutamine (Invitrogen, cat. 25030081), and 9.7 microM Y-27632 dihydrochloride (Tocris Bioscience, Bristol, United Kingdom, cat. 1254). The PDCs were cultured in complete DMEM/F12 media without 10 microM Y-27632 dihydrochloride for at least two passages prior to the screen. The established cell lines NCI-H1341 and […] were cultured in DMEM/F-12, HEPES (Invitrogen, cat. 11330032), 5% defined fetal bovine serum (HyClone Laboratories Inc., cat. SH30070.03), ITS premix universal culture supplement [insulin (5 microg/mL), transferrin (5 microg/mL), and selenious acid (5 ng/mL)] […]

[1] = second compound 0.1 µM, first compound 0.0316 µM
[2] = second compound 0.1 µM, first compound 0.1 µM
[3] = second compound 0.1 µM, first compound 0.316 µM
[4] = second compound 0.1 µM, first compound 1 µM
[5] = second compound 0.1 µM, first compound 3.16 µM
[6] = second compound 0.1 µM, first compound 10 µM
[7] = second compound 0.316 µM, first compound 0.0316 µM
[8] = second compound 0.316 µM, first compound 0.1 µM
[9] = second compound 0.316 µM, first compound 0.316 µM
[10] = second compound 0.316 µM, first compound 1 µM
[11] = second compound 0.316 µM, first compound 3.16 µM
[12] = second compound 0.316 µM, first compound 10 µM
[13] = second compound 1 µM, first compound 0.0316 µM
[14] = second compound 1 µM, first compound 0.1 µM
[15] = second compound 1 µM, first compound 0.316 µM
[16] = second compound 1 µM, first compound 1 µM
[17] = second compound 1 µM, first compound 3.16 µM
[18] = second compound 1 µM, first compound 10 µM
[19] = second compound 3.16 µM, first compound 0.0316 µM
[20] = second compound 3.16 µM, first compound 0.1 µM
[21] = second compound 3.16 µM, first compound 0.316 µM
[22] = second compound 3.16 µM, first compound 1 µM
[23] = second compound 3.16 µM, first compound 3.16 µM
[24] = second compound 3.16 µM, first compound 10 µM
[25] = second compound 10 µM, first compound 0.0316 µM
[26] = second compound 10 µM, first compound 0.1 µM
[27] = second compound 10 µM, first compound 0.316 µM
[28] = second compound 10 µM, first compound 1 µM
[29] = second compound 10 µM, first compound 3.16 µM
[30] = second compound 10 µM, first compound 10 µM
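For viability, T/C in this document: percent of DMSO vehicle-treated spheroid viability set as 100%.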

- pIC50 (second compound 0.1 µM): 8.03
- pIC50 (second compound 0.316 µM): 8.16
- pIC50 (second compound 1 µM): 8.06
- pIC50 (second compound 3.16 µM): 7.94
- pIC50 (second compound 10 µM): 7.70
Compound: CCc1c2c(nc3ccc(O)cc13)-c1cc3c(c(=O)n1C2)COC(=O)[C@]3(O)CC + CC(CO)NC(=O)c1cc(-c2ccc(Cl)cc2)nn(-c2cnn(C)c2)c1=O
- viability, T/C (second compound 0.1 µM, first compound 0.000949 µM): 53.8%
- viability, T/C (second compound 0.1 µM, first compound 0.003 µM): 58.1%
- viability, T/C (second compound 0.1 µM, first compound 0.00949 µM): 52.2%
- viability, T/C (second compound 0.1 µM, first compound 0.03 µM): 36.1%
- viability, T/C (second compound 0.1 µM, first compound 0.0949 µM): 40.8%
- viability, T/C (second compound 0.1 µM, first compound 0.3 µM): 26.7%
- viability, T/C (second compound 0.316 µM, first compound 0.000949 µM): 70.6%
- viability, T/C (second compound 0.316 µM, first compound 0.003 µM): 53.1%
- viability, T/C (second compound 0.316 µM, first compound 0.00949 µM): 48.9%
- viability, T/C (second compound 0.316 µM, first compound 0.03 µM): 38.2%
- viability, T/C (second compound 0.316 µM, first compound 0.0949 µM): 34.6%
- viability, T/C (second compound 0.316 µM, first compound 0.3 µM): 25%
- viability, T/C (second compound 1 µM, first compound 0.000949 µM): 63.5%
- viability, T/C (second compound 1 µM, first compound 0.003 µM): 56.4%
- viability, T/C (second compound 1 µM, first compound 0.00949 µM): 51.5%
- viability, T/C (second compound 1 µM, first compound 0.03 µM): 34.8%
- viability, T/C (second compound 1 µM, first compound 0.0949 µM): 27.9%
- viability, T/C (second compound 1 µM, first compound 0.3 µM): 21%
- viability, T/C (second compound 3.16 µM, first compound 0.000949 µM): 55.8%
- viability, T/C (second compound 3.16 µM, first compound 0.003 µM): 52.6%
- viability, T/C (second compound 3.16 µM, first compound 0.00949 µM): 54.6%
- viability, T/C (second compound 3.16 µM, first compound 0.03 µM): 34.6%
- viability, T/C (second compound 3.16 µM, first compound 0.0949 µM): 26.6%
- viability, T/C (second compound 3.16 µM, first compound 0.3 µM): 19.3%
- viability, T/C (second compound 10 µM, first compound 0.000949 µM): 63.9%
- viability, T/C (second compound 10 µM, first compound 0.003 µM): 54.4%
- viability, T/C (second compound 10 µM, first compound 0.00949 µM): 57.3%
- viability, T/C (second compound 10 µM, first compound 0.03 µM): 47%
- viability, T/C (second compound 10 µM, first compound 0.0949 µM): 30.3%
- viability, T/C (second compound 10 µM, first compound 0.3 µM): 19.4%

- pIC50 (second compound 0.1 µM): 6.24
- pIC50 (second compound 0.316 µM): 6.18
- pIC50 (second compound 1 µM): 6.12
- pIC50 (second compound 3.16 µM): 6.08
- pIC50 (second compound 10 µM): 5.93
Compound: Nc1ccn(C2OC(CO)C(O)C2(F)F)c(=O)n1 (stereo not given) + CC(CO)NC(=O)c1cc(-c2ccc(Cl)cc2)nn(-c2cnn(C)c2)c1=O
- viability, T/C [1]: 81.9%
- viability, T/C [2]: 90.8%
- viability, T/C [3]: 65.8%
- viability, T/C [4]: 35.6%
- viability, T/C [5]: 31.8%
- viability, T/C [6]: 28.1%
- viability, T/C [7]: 92.2%
- viability, T/C [8]: 92.5%
- viability, T/C [9]: 70.7%
- viability, T/C [10]: 38.6%
- viability, T/C [11]: 30.7%
- viability, T/C [12]: 27%
- viability, T/C [13]: 90.9%
- viability, T/C [14]: 77.4%
- viability, T/C [15]: 69.8%
- viability, T/C [16]: 45.3%
- viability, T/C [17]: 26.7%
- viability, T/C [18]: 26.4%
- viability, T/C [19]: 77.5%
- viability, T/C [20]: 79.8%
- viability, T/C [21]: 72.4%
- viability, T/C [22]: 45.6%
- viability, T/C [23]: 30.1%
- viability, T/C [24]: 24.8%
- viability, T/C [25]: 82.9%
- viability, T/C [26]: 80.5%
- viability, T/C [27]: 81.6%
- viability, T/C [28]: 52.3%
- viability, T/C [29]: 36%
- viability, T/C [30]: 33.9%

- pIC50 (second compound 0.1 µM): < 5.00
- pIC50 (second compound 0.316 µM): < 5.00
- pIC50 (second compound 1 µM): < 5.00
- pIC50 (second compound 3.16 µM): < 5.00
- pIC50 (second compound 10 µM): < 5.00
Compound: O=C(c1cc(Cc2n[nH]c(=O)c3ccccc23)ccc1F)N1CCN(C(=O)C2CC2)CC1 + CC(CO)NC(=O)c1cc(-c2ccc(Cl)cc2)nn(-c2cnn(C)c2)c1=O
- viability, T/C [1]: 92.9%
- viability, T/C [2]: 95.3%
- viability, T/C [3]: 89.2%
- viability, T/C [4]: 76.7%
- viability, T/C [5]: 66.8%
- viability, T/C [6]: 62.2%
- viability, T/C [7]: 108%
- viability, T/C [8]: 99.6%
- viability, T/C [9]: 103%
- viability, T/C [10]: 82.3%
- viability, T/C [11]: 73.3%
- viability, T/C [12]: 70.4%
- viability, T/C [13]: 99.8%
- viability, T/C [14]: 104%
- viability, T/C [15]: 99.2%
- viability, T/C [16]: 72.3%
- viability, T/C [17]: 76%
- viability, T/C [18]: 67.9%
- viability, T/C [19]: 90.6%
- viability, T/C [20]: 96.7%
- viability, T/C [21]: 83.5%
- viability, T/C [22]: 78.3%
- viability, T/C [23]: 63.5%
- viability, T/C [24]: 59.2%
- viability, T/C [25]: 74.5%
- viability, T/C [26]: 72.7%
- viability, T/C [27]: 74%
- viability, T/C [28]: 71.9%
- viability, T/C [29]: 65.8%
- viability, T/C [30]: 69.7%
